Assay: xn = mol fraction of the nth substance listed
Details: 101 kPa, Liquid; for viscosity: Falling or rolling sphere viscometry; for mass density: Vibrating tube method

CCCC(=O)OCC [ethyl butanoate] + CCCCCCO
Details	mass density [kg/m3]	viscosity [mPa·s]
288.15 K, x1 = 0.0997	828.32	4.176
288.15 K, x1 = 0.1998	834.25	2.965
288.15 K, x1 = 0.3002	840.39	2.214
288.15 K, x1 = 0.4	846.47	1.735
288.15 K, x1 = 0.5	852.62	1.399
288.15 K, x1 = 0.5998	858.84	1.17
288.15 K, x1 = 0.6999	865.11	0.9966
288.15 K, x1 = 0.7999	871.43	0.8726
288.15 K, x1 = 0.8998	877.77	0.7818
288.15 K, x1 = 1	884.16	0.7224
293.15 K, x1 = 0.0997	824.57	3.6
293.15 K, x1 = 0.1998	830.32	2.6
293.15 K, x1 = 0.3002	836.29	1.97
293.15 K, x1 = 0.4	842.19	1.563
293.15 K, x1 = 0.5	848.18	1.274
293.15 K, x1 = 0.5998	854.23	1.075
293.15 K, x1 = 0.6999	860.32	0.9233
293.15 K, x1 = 0.7999	866.48	0.8142
293.15 K, x1 = 0.8998	872.65	0.7339
293.15 K, x1 = 1	878.9	0.6808
298.15 K, x1 = 0.0997	820.8	3.124
298.15 K, x1 = 0.1998	826.39	2.295
298.15 K, x1 = 0.3002	832.17	1.762
298.15 K, x1 = 0.4	837.9	1.414
298.15 K, x1 = 0.5	843.72	1.166
298.15 K, x1 = 0.5998	849.59	0.991
298.15 K, x1 = 0.6999	855.52	0.857
298.15 K, x1 = 0.7999	861.51	0.761
298.15 K, x1 = 0.8998	867.52	0.6898
298.15 K, x1 = 1	873.62	0.643
303.15 K, x1 = 0.0997	817.02	2.731
303.15 K, x1 = 0.1998	822.43	2.038
303.15 K, x1 = 0.3002	828.03	1.585
303.15 K, x1 = 0.4	833.6	1.286
303.15 K, x1 = 0.5	839.24	1.069
303.15 K, x1 = 0.5998	844.95	0.9185
303.15 K, x1 = 0.6999	850.71	0.7979
303.15 K, x1 = 0.7999	856.53	0.7129
303.15 K, x1 = 0.8998	862.38	0.6492
303.15 K, x1 = 1	868.33	0.6072
308.15 K, x1 = 0.0997	813.22	2.403
308.15 K, x1 = 0.1998	818.46	1.819
308.15 K, x1 = 0.3002	823.88	1.433
308.15 K, x1 = 0.4	829.27	1.174
308.15 K, x1 = 0.5	834.75	0.9852
308.15 K, x1 = 0.5998	840.28	0.8501
308.15 K, x1 = 0.6999	845.88	0.7452
308.15 K, x1 = 0.7999	851.54	0.6686
308.15 K, x1 = 0.8998	857.23	0.6113
308.15 K, x1 = 1	863.02	0.5736
313.15 K, x1 = 0.0997	809.4	2.124
313.15 K, x1 = 0.1998	814.46	1.631
313.15 K, x1 = 0.3002	819.7	1.3
313.15 K, x1 = 0.4	824.92	1.076
313.15 K, x1 = 0.5	830.23	0.9099
313.15 K, x1 = 0.5998	835.6	0.7898
313.15 K, x1 = 0.6999	841.02	0.6964
313.15 K, x1 = 0.7999	846.52	0.6277
313.15 K, x1 = 0.8998	852.06	0.5762
313.15 K, x1 = 1	857.7	0.5425
318.15 K, x1 = 0.0997	805.54	1.887
318.15 K, x1 = 0.1998	810.43	1.469
318.15 K, x1 = 0.3002	815.5	1.184
318.15 K, x1 = 0.4	820.55	0.9878
318.15 K, x1 = 0.5	825.69	0.8422
318.15 K, x1 = 0.5998	830.89	0.7355
318.15 K, x1 = 0.6999	836.15	0.652
318.15 K, x1 = 0.7999	841.48	0.5903
318.15 K, x1 = 0.8998	846.86	0.544
318.15 K, x1 = 1	852.36	0.5132
323.15 K, x1 = 0.0997	801.66	1.7
323.15 K, x1 = 0.1998	806.38	1.332
323.15 K, x1 = 0.3002	811.27	1.089
323.15 K, x1 = 0.4	816.15	0.9186
323.15 K, x1 = 0.5	821.13	0.788
323.15 K, x1 = 0.5998	826.16	0.6919
323.15 K, x1 = 0.6999	831.25	0.6147
323.15 K, x1 = 0.7999	836.43	0.5594
323.15 K, x1 = 0.8998	841.64	0.5176
323.15 K, x1 = 1	847	0.487
